# Data as given in article PMC13252604, “First Generation Proteolysis Targeting Chimeras (PROTACs) for the Treatment of Progeria” (Advanced Science, 2026).
# Experiments:
# [1] = tested on: HGADFN167 Lmna^G608G/G608G fibroblasts; assay: Oxygen consumption rates (OCR) measurement; type: cell-based, human; details: HGADFN167, 5 µM, 20 days
# Text: FIGURE 6 (A) Representative cropped immunoblots and progerin quantification in human Lmna^G608G/G608G fibroblasts. MW, molecular weight (in kDa) markers. […] (B) PROTAC 2 increases cell proliferation (upper panels) and decreases the number of misshapen nuclei (lower panels). White arrows highlight selected misshapen nuclei. (C) PROTAC 2 decreases senescence‐associated β‐galactosidase (SA‐βgal) activity, interleukin (IL) 6, p16 and p21 senescent markers. Bar graphs show mean±sem of 2 (SA‐βgal and p21) or 3 (IL‐6 and p16) independent experiments performed in triplicate. (D) PROTAC 2 decreases phosphorylated histone 2AX (pH2AX) and increases trimethylated histone 3 (H3K9Me3) levels. (E) PROTAC 2 increases the oxygen consumption rate (OCR), ATP production and the number of healthy mitochondria in human progeroid cells. Bar graphs show mean±sem of 2 independent experiments performed in duplicate. […] Data were analysed using one‐way ANOVA followed by Dunnett's post–hoc test vs vehicle (panel A) or vs G608G cells (panels B‐E). ^*, p < 0.05; ^**, p < 0.01; ^***, p < 0.001; ^****, p < 0.0001. […]
# Mitochondria were evaluated for the integrity of the membrane, matrix and cristae, and were classified as mitochondria with normal morphology (black arrows) or damaged mitochondria (red arrows, with alterations in the membrane, presence of inclusions in the matrix and concentric cristae or “onion-like” mitochondria). […]
# ferrocyanide, 0.6 mL 5 M NaCl, 0.2 mL 0.2 M MgCl2, (all from Sigma Aldrich) and 6.2 mL of deionized water in a total volume of 20 mL] in the dark in a humidified incubator at 37 °C for 24 h without CO2 supply. Then, an equal volume of the supernatant of each well was transferred to a new 96-well plate for fluorescence measurement. The resultant production of fluorescein was measured using a FluoStar Optima instrument (BMG Labtech) with an excitation of 485 nm and emission at 535 nm. […]
# Total RNA was extracted by RNAeasy Mini Kit (Qiagen) according to the manufacturer instructions and subsequently quantified using the NanoPhotometer N60 (Implen). […]
# [2] = Solubility in phosphate buffer solution; type: physicochemical; details: aqueous buffer; phosphate buffer solution (PBS, pH = 7.5)
# [3] = tested on: Lmna^G609G/G609G mouse fibroblasts; assay: Cellular uptake by fluorescence microscopy; type: cell-based; details: intrinsic fluorescence, 5 μM
# Experimental: Supporting Figure S4. Cellular internalization of compounds 2 and 9. Live progeroid
# LmnaG609G/G609G mouse fibroblasts were incubated with 5 μM of indicated compound and
# images were taken every 5 minutes in a confocal fluorescence microscopy Olympus lx83
# (lexc = 420 nm; lem = 530 nm). Shown image corresponds to 100 min incubation. Scale […]
smiles,measurement,setting,value
CC1(C)Oc2cc3oc(=O)ccc3cc2C[C@@H]1OC(=O)CCCCCNc1cccc2c1C(=O)N(C1CCC(=O)NC1=O)C2=O (some centres unmarked) [compound 2],ATP production,[1],enhances
same,basal respiration,[1],enhances
same,oxygen consumption rate (OCR),[1],enhances OCR in human progeroid cells
same,solubility,[2],0.5 µM
same,cellular uptake,[3],confirmed
